The values below come from paper PMC11403612, “Preparation and Preclinical Characterization of a Simple Ester for Dual Exogenous Supply of Lactate and Beta-hydroxybutyrate” (Journal of Agricultural and Food Chemistry, 2024).

Series [1] in a line: Microsomal stability of LaKe, rat. Type of series: in vitro ADME, SD Rat. Here is the method: (§1) The in vitro stability of LaKe was evaluated following incubation in simulated gastric fluid (SGF), simulated intestinal fluid (SIF), fresh and frozen plasma (rats and humans, respectively), and the presence of hepatocytes (rats and humans) and liver microsomes (rats and humans). At the chosen time points, the mixtures were analyzed by LC-MS/MS to quantify the remaining LaKe and all assays included at least one control compound with known pharmacokinetic properties.
(§2) Hepatocyte stability of LaKe
(§3) Cells: Rat hepatocytes (BioreclamationIVT, M0005); Human hepatocytes (BioreclamationIVT, X008001) Thawing Medium: Williams’ Medium E containing 5% fetal bovine serum and 30% Percoll solution and other […]
(§4) Incubation Medium: Williams’ Medium E (no phenol red) containing 2 mM L-Glutamine and 25 mM HEPES.
(§5) Stop Solution: Acetonitrile containing 200 ng/mL tolbutamide and labetalol as internal standards.
(§6) Dilution Solution: Ultra-pure water.
(§7) Preparation of Quenching Plate: Transfer 125 μL of stop solution (acetonitrile containing 200 ng/mL tolbutamide and 200 ng/mL labetalol as internal standards) in a set of pre-labeled 96-well plates.
(§8) Cryopreserved cells were thawed, isolated and suspended in Incubation Medium, then diluted with pre-warmed Incubation Medium to 0.5 × 10^6 cells/mL. 198 μL of pre-warmed cell suspensions were added in 96-well plates. […]

A short description of series [2]: Microsomal stability of LaKe, human. Type of series: in vitro ADME. Here is the method:
as §1, §2, §3, §4, §5, §6, §7, §8

`CC(O)CCOC(=O)C(C)O` (stereo not shown) [LaKe, 3-hydroxybutyl 2-hydroxypropanoate]: the “turnover in liver microsomes” value in series [1] (presence of NADPH) and in series [2] (presence of NADPH) was “underwent turnover” each time. Also, the LaKe remaining turned out to be 55% in series [1] (rat liver microsomes, absence of NADPH, after 60 min) and 82% in series [2] (human liver microsomes, absence of NADPH, after 60 min).
